# Tests used:
# Type in all cases: physicochemical
# [1] = Interconversion study: competitive slurry of Form A and B; settings: competitive slurry, H2O/PhMe, 1-3 weeks
# Procedure: An interconversion study of crystal forms was performed. To understand the thermodynamic stability relationship between Form A and B, competitive slurry experiments were performed at RT and 50° C. in water and toluene. Prior to the study, Form A was used to saturate the corresponding solvent before it was filtered to obtain a near-saturated solution. Equal amounts of Form A and B samples were weighed and then mixed with the prepared near-saturated solution to form a new suspension, which was stirred magnetically (˜1000 rpm) at RT and 50° C.
# [2] = Solubility of Form B in FaSSIF-v2 and FeSSIF-v2 at 37° C.; settings: for Final Form: residual solid by XRPD, 2 hr
# Procedure: Solubility of Form B was evaluated at 2 hr for Form B in FaSSIF-v2 and FeSSIF-v2 at 37° C. Approximately 10 to 20 mg of Form B sample was added in 0.8 mL of corresponding bio-relevant medium to form a suspension, followed by shaking at 500 rpm at 37° C. After 2 hr, the supernatants were isolated by centrifugation (7200 rpm for 5 min) followed by filtration through […] PTFE membrane and were tested by HPLC concentration and pH. The residual solids were characterized by XRPD. As summarized in Table 17, Form B converted to a new form (Form C) after solubility evaluation, while the solubility in FaSSIF-v2 and FeSSIF-v2 was measured to be 0.12 and 0.080 mg/mL, respectively.
# [3] = Visual solubility assessment of Form B at room temperature; settings: organic solvent or mixture, thermodynamic from solid
# Procedure: Approximately 55 to 90 mg of Form B was added into a 4 mL glass vial. Solvent list in Table 18 was added into each of the vial. These samples were stirred for 3 minutes prior to visual solubility assessment.
Compound,Final Form ([1]; 50° C.),Final Form ([1]; RT),"solubility at 2 h ([2]; FaSSIF-v2, thermodynamic from solid, FaSSIF (pH 6.5), final pH 6.6) [mg/mL]","solubility at 2 h ([2]; FeSSIF-v2, thermodynamic from solid, FeSSIF (pH 5.8), final pH 5.9) [mg/mL]",Final Form ([2]; FaSSIF (pH 6.5)),Final Form ([2]; FeSSIF (pH 5.8)),"solubility at 3 min ([3]; 2-Me THF, room temperature) [mg/mL]","solubility at 3 min ([3]; 2-Propanol, room temperature) [mg/mL]","solubility at 3 min ([3]; Acetone, room temperature) [mg/mL]","solubility at 3 min ([3]; Acetonitrile, room temperature) [mg/mL]","solubility at 3 min ([3]; Dichloromethane, room temperature) [mg/mL]","solubility at 3 min ([3]; EtOH, room temperature) [mg/mL]","solubility at 3 min ([3]; Ethyl Acetate, room temperature) [mg/mL]","solubility at 3 min ([3]; H2O/MeCN 1/3 (v/v) Aw~0.9, room temperature) [mg/mL]","solubility at 3 min ([3]; H2O/MeOH 1/3 (v/v) Aw~0.5, room temperature) [mg/mL]","solubility at 3 min ([3]; Isopropyl Acetate, room temperature) [mg/mL]","solubility at 3 min ([3]; Nitromethane, room temperature) [mg/mL]"
"C[C@@H]1CN(Cc2cccc(OC(F)(F)F)c2)CCN1C(=O)Oc1cncc(C(N)=O)c1 [Form A + B, (R)-5-carbamoylpyridin-3-yl-2-methyl-4-(3-(trifluoromethoxy)benzyl)piperazine-1-carboxylate]",Form A,Form A,–,–,–,–,–,–,–,–,–,–,–,–,–,–,–
"C[C@@H]1CN(Cc2cccc(OC(F)(F)F)c2)CCN1C(=O)Oc1cncc(C(N)=O)c1 [Form B, (R)-5-carbamoylpyridin-3-yl-2-methyl-4-(3-(trifluoromethoxy)benzyl)piperazine-1-carboxylate]",–,–,0.12,0.08,Form C,Form C,> 810,> 365,> 430,> 720,> 830,> 800,> 800,> 730,> 780,< 810,> 560

# Reference: patent US12410133B2, “Crystalline (r)-5-carbamoylpyridin-3-yl-2-methyl-4-(3-(trifluoromethoxy)benzyl)piperazine-1-carboxylate, compositions and methods of use thereof” (Celgene Corporation, priority 2018, dated 2025)
